8 compounds from patent US20260125382A1, “COMPOUNDS FOR INHIBITING OR DEGRADING CDK2 AND/OR CDK9 AND MEDICINAL USE THEREOF” (KOREA RESEARCH INSTITUTE OF CHEMICAL TECHNOLOGY, priority 2022, published 2026) can be followed below.

Each structure is given as a SMILES string.

In test [1] the target is T1, CDK9 (Homo sapiens, UniProt P50750).
T1 construct: endogenous in cells; host or cells: MDA-MB-231
The test can be described thus: CDK protein degradation activity (Western blotting), CDK9. The test is classed as cell-based. The following applies: MDA-MB-231 cells, 16 hours, Western blot. Summed up:
(§1)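 Degradation is judged from CDK2 and CDK9 band intensity relative to tubulin and DMSO-treated cells, after 16 h exposure of MDA-MB-231 cells to three compound concentrations (100 nM, 1 μM, 10 μM).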

Test [2] concerns the target T2, CDK2 (Homo sapiens, UniProt P24941).
T2 construct: endogenous in cells; host or cells: MDA-MB-231
The test can be described thus: CDK protein degradation activity (Western blotting), CDK2. The test is classed as cell-based. The following applies: MDA-MB-231 cells, 16 hours, Western blot. Summed up: as §1

T1 sequence (P50750 whole entry): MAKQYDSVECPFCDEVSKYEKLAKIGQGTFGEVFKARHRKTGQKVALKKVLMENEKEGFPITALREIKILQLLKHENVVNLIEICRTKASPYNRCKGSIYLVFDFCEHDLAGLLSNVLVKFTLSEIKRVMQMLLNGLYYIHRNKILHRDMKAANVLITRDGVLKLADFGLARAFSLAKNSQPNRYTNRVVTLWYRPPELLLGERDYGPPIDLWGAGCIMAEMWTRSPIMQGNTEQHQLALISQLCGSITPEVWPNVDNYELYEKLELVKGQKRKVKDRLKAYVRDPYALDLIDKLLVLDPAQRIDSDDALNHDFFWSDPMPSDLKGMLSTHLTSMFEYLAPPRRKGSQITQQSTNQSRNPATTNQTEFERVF

As for `O=C1CC[C@H](N2C(=O)c3cccc(NCC(=O)N4CCN(CCCN5CCN(c6ccc(Nc7ncnc8c7ncn8[C@H]7C[C@@H](NC(=O)Cc8ccccc8)C7)cc6)CC5)CC4)c3C2=O)C(=O)N1` [Compound 231, N-((1s,3s)-3-(6-((4-(4-(3-(4-((2-(2,6-dioxopiperidin-3-yl)-1,3-dioxoisoindolin-4-yl)glycyl)piperazin-1-yl)propyl)piperazin-1-yl)phenyl)amino)-9H-purin-9-yl)cyclobutyl)-2-phenylacetamide], in test [1], the “Enzyme degradation CDK9 (% remaining) @ 0.1 μM” value is listed as 20%, the “Enzyme degradation CDK9 (% remaining) @ 1 μM” value is 0% and the “Enzyme degradation CDK9 (% remaining) @ 10 μM” value came to 0%. Further, in test [2], the “Enzyme degradation CDK2 (% remaining) @ 0.1 μM” value came to 50%, the “Enzyme degradation CDK2 (% remaining) @ 1 μM” value turned out to be 60% and the “Enzyme degradation CDK2 (% remaining) @ 10 μM” value is on record as 40%.
As to `O=C1CC[C@H](N2C(=O)c3ccc(OCC(=O)N4CCN(CC5CCN(c6ccc(Nc7ncnc8c7ncn8C7CC(NC(=O)c8c(Cl)cccc8Cl)C7)cc6)CC5)CC4)cc3C2=O)C(=O)N1` (stereo partly drawn) [Compound 325, 2,6-dichloro-N-((1s,3s)-3-(6-((4-(4-((4-(2-((2-(2,6-dioxopiperidin-3-yl)-1,3-dioxoisoindolin-5-yl)oxy)acetyl)piperazin-1-yl)methyl)piperidin-1-yl)phenyl)amino)-9H-purin-9-yl)cyclobutyl)benzamide], in test [1], the “Enzyme degradation CDK9 (% remaining) @ 0.1 μM” value is given as 80%, the “Enzyme degradation CDK9 (% remaining) @ 1 μM” value is recorded as 0% and the “Enzyme degradation CDK9 (% remaining) @ 10 μM” value was 0%. Further, in test [2], the “Enzyme degradation CDK2 (% remaining) @ 0.1 μM” value worked out at 40%, the “Enzyme degradation CDK2 (% remaining) @ 1 μM” value is given as 60% and the “Enzyme degradation CDK2 (% remaining) @ 10 μM” value is given as 60%.
As for `O=C1CCC(N2C(=O)c3cccc(N4CCC(OCCN5CCN(c6ccc(Nc7ncnc8c7ncn8[C@H]7C[C@@H](NC(=O)Cc8ccccc8)C7)cc6)CC5)CC4)c3C2=O)C(=O)N1` (stereo partly drawn) [Compound 260, N-((1s,3s)-3-(6-((4-(4-(2-((1-(2-(2,6-dioxopiperidin-3-yl)-1,3-dioxoisoindolin-4-yl)piperidin-4-yl)oxy)ethyl)piperazin-1-yl)phenyl)amino)-9H-purin-9-yl)cyclobutyl)-2-phenylacetamide], in test [1], the “Enzyme degradation CDK9 (% remaining) @ 0.1 μM” value was 60/60/60%, the “Enzyme degradation CDK9 (% remaining) @ 1 μM” value is on record as 60/60/60% and the “Enzyme degradation CDK9 (% remaining) @ 10 μM” value is 60/60/60%. Also, in test [2], the “Enzyme degradation CDK2 (% remaining) @ 0.1 μM” value was 20/20/20%, the “Enzyme degradation CDK2 (% remaining) @ 1 μM” value is on record as 20/20/20% and the “Enzyme degradation CDK2 (% remaining) @ 10 μM” value was 20/20/20%.
On to `O=C1CC[C@H](n2nnc3ccc(N4CCC(CCN5CCN(c6ccc(Nc7ncnc8c7ncn8C7CC(NC(=O)Cc8ccccc8)C7)cc6)CC5)CC4)cc3c2=O)C(=O)N1` (stereo partly drawn) [Compound 324, N-((1s,3s)-3-(6-((4-(4-(2-(1-(3-(2,6-dioxopiperidin-3-yl)-4-oxo-3,4-dihydrobenzo[d][1,2,3]triazin-6-yl)piperidin-4-yl)ethyl)piperazin-1-yl)phenyl)amino)-9H-purin-9-yl)cyclobutyl)-2-phenylacetamide], for which, in test [1], the “Enzyme degradation CDK9 (% remaining) @ 0.1 μM” value is listed as 0/0/0%, the “Enzyme degradation CDK9 (% remaining) @ 1 μM” value is listed as 0/0/0% and the “Enzyme degradation CDK9 (% remaining) @ 10 μM” value is listed as 0/0/0%. Further, in test [2], the “Enzyme degradation CDK2 (% remaining) @ 0.1 μM” value was found to be 70%, the “Enzyme degradation CDK2 (% remaining) @ 1 μM” value stood at 80% and the “Enzyme degradation CDK2 (% remaining) @ 10 μM” value was determined as 10%.
With `O=C1CC[C@H](n2nnc3ccc(N4CCN(CC5CCN(c6ccc(Nc7ncnc8c7ncn8C7CC(NC(=O)Cc8ccccc8)C7)cc6)CC5)CC4)cc3c2=O)C(=O)N1` (stereo partly drawn) [Compound 320, N-((1s,3s)-3-(6-((4-(4-((4-(3-(2,6-dioxopiperidin-3-yl)-4-oxo-3,4-dihydrobenzo[d][1,2,3]triazin-6-yl)piperazin-1-yl)methyl)piperidin-1-yl)phenyl)amino)-9H-purin-9-yl)cyclobutyl)-2-phenylacetamide], in test [1], the “Enzyme degradation CDK9 (% remaining) @ 0.1 μM” value is 80%, the “Enzyme degradation CDK9 (% remaining) @ 1 μM” value stood at 10% and the “Enzyme degradation CDK9 (% remaining) @ 10 μM” value amounted to 10%. Moreover, in test [2], the “Enzyme degradation CDK2 (% remaining) @ 0.1 μM” value is given as 20%, the “Enzyme degradation CDK2 (% remaining) @ 1 μM” value is 0% and the “Enzyme degradation CDK2 (% remaining) @ 10 μM” value is reported as 0%.
`Cc1cccc(C(=O)NC2CC(n3cnc4c(NCCCN5CCN(CC6CCN(C(=O)COc7cccc8c7C(=O)N([C@@H]7CCC(=O)NC7=O)C8=O)CC6)CC5)ncnc43)C2)n1` (stereo partly drawn) [Compound 142, N-((1r,3r)-3-(6-((3-(4-((1-(2-((2-(2,6-dioxopiperidin-3-yl)-1,3-dioxoisoindolin-4-yl)oxy)acetyl)piperidin-4-yl)methyl)piperazin-1-yl)propyl)amino)-9H-purin-9-yl)cyclobutyl)-6-methylpicolinamide]: in test [1], the “Enzyme degradation CDK9 (% remaining) @ 0.1 μM” value worked out at 70%, the “Enzyme degradation CDK9 (% remaining) @ 1 μM” value was 0% and the “Enzyme degradation CDK9 (% remaining) @ 10 μM” value worked out at 0%. Also, in test [2], the “Enzyme degradation CDK2 (% remaining) @ 0.1 μM” value was determined as 80%, the “Enzyme degradation CDK2 (% remaining) @ 1 μM” value is given as 70% and the “Enzyme degradation CDK2 (% remaining) @ 10 μM” value is listed as 50%.
As to `O=C1CC[C@@H](c2ccc(OCC(=O)N3CC(N4CCC5(CC4)CC(N4CCN(c6ccc(Nc7ncnc8c7ncn8[C@H]7C[C@@H](NC(=O)Cc8ccccc8)C7)cc6)CC4)C5)C3)cc2)C(=O)N1` [Compound 273, N-((1s,3s)-3-(6-((4-(4-(7-(1-(2-(4-(2,6-dioxopiperidin-3-yl)phenoxy)acetyl)azetidin-3-yl)-7-azaspiro[3.5]nonan-2-yl)piperazin-1-yl)phenyl)amino)-9H-purin-9-yl)cyclobutyl)-2-phenylacetamide], in test [1], the “Enzyme degradation CDK9 (% remaining) @ 0.1 μM” value is listed as 20%, the “Enzyme degradation CDK9 (% remaining) @ 1 μM” value came out at 10% and the “Enzyme degradation CDK9 (% remaining) @ 10 μM” value came out at 10%. Moreover, in test [2], the “Enzyme degradation CDK2 (% remaining) @ 0.1 μM” value was 100%, the “Enzyme degradation CDK2 (% remaining) @ 1 μM” value is 70% and the “Enzyme degradation CDK2 (% remaining) @ 10 μM” value is recorded as 50%.
With `O=C(COc1ccc(C2CCC(=O)NC2=O)cc1)NC[C@H]1CC[C@H](CN2CCN(c3ccc(Nc4ncnc5c4ncn5[C@H]4C[C@@H](NC(=O)Cc5ccccc5)C4)cc3)CC2)CC1` (stereo partly drawn) [Compound 217, 2-(4-(2,6-dioxopiperidin-3-yl)phenoxy)-N-(((1r,4r)-4-((4-(4-((9-((1s,3s)-3-(2-phenylacetamido)cyclobutyl)-9H-purin-6-yl)amino)phenyl)piperazin-1-yl)methyl)cyclohexyl)methyl)acetamide], in test [1], the “Enzyme degradation CDK9 (% remaining) @ 0.1 μM” value was 0/0/0%, the “Enzyme degradation CDK9 (% remaining) @ 1 μM” value was 0/0/0% and the “Enzyme degradation CDK9 (% remaining) @ 10 μM” value was 0/0/0%. In test [2], the “Enzyme degradation CDK2 (% remaining) @ 0.1 μM” value came to 80%, the “Enzyme degradation CDK2 (% remaining) @ 1 μM” value was determined as 100% and the “Enzyme degradation CDK2 (% remaining) @ 10 μM” value came out at 50%.
